Measurements from patent US20250228835A1, “PYRIDINYLOXYPYRIDINES AND RELATED COMPOUNDS AND THEIR USE IN TREATING MEDICAL CONDITIONS” (Rectify Pharmaceuticals, Inc., priority 2024, published 2025).
pEC50: −log10 of the molar value.

How the values were obtained:
Format in all cases: cell-based
[1] = target: T1, ABCB4 WT (Homo sapiens, UniProt P21439); assay: ABCB4 WT assay: HiBit protein expression; conditions: HEK-293 cells stably expressing HiBit-tagged ABCB4 WT; 24 h treatment; top concentration 30 μM; read-out: ABCB4 WT EC50, Emax
T1 construct: expressed in transfected cells
T1 sequence (P21439 whole entry): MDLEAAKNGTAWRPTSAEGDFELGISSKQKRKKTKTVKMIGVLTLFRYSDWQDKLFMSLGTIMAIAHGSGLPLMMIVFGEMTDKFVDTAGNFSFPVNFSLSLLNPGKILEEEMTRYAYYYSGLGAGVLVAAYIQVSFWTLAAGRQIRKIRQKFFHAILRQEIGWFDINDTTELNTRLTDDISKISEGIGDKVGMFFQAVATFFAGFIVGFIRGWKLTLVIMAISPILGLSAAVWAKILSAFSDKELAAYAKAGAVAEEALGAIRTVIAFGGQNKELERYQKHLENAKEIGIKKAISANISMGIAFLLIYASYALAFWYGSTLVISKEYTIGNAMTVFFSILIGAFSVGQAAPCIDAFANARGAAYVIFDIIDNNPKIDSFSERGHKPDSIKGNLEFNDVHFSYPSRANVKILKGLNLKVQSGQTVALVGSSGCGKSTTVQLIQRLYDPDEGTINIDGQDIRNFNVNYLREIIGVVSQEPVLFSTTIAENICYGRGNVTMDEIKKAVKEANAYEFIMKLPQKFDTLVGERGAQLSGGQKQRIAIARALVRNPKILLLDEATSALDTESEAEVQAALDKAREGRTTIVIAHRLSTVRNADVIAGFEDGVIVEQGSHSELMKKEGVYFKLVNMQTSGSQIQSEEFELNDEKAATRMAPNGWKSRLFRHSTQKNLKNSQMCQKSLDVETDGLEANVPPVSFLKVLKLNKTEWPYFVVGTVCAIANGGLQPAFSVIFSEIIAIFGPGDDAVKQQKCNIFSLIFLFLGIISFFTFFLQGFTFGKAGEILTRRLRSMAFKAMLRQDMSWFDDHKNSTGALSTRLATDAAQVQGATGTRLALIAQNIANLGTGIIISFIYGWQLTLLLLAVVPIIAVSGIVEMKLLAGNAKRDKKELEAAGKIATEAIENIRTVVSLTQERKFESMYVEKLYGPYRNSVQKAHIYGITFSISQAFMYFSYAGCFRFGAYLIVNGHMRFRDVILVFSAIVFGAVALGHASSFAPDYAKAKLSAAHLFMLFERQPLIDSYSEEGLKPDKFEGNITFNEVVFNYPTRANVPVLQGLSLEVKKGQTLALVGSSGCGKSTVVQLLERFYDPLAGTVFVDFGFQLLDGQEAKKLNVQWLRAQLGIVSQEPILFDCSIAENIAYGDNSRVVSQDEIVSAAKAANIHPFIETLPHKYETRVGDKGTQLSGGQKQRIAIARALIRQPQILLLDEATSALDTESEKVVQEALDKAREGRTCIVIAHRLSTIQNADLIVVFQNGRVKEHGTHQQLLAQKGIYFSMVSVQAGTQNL
Excerpt: To assess activity against ABCB4, compounds were screened in an assay measuring protein expression, using cells transfected with cDNA encoding HiBit-tagged ABCB4 wild-type.
Described here is an assay for measuring the expression of the wild type of human ABCB4 (henceforth referred to as ABCB4 WT) and the use of this assay to measure the efficacy of compounds to increase the expression of ABCB4 WT. The assay was designed to characterize the efficacy and potency of compounds to increase the expression of ABCB4 WT by calculating an Emax and EC50 value. HEK-293 cells stably expressing ABCB4 WT (HEK-293/ABCB4 WT) were used for this assay and were maintained at 37° C. (5% CO2, humidified) in Dulbecco's Modified Eagle Medium (DMEM, Gibco product #12100) supplemented with 10% fetal bovine serum (Biosera product #FB-1058/500), 1% PenStrep (HDB product #15140-122), and 0.5 mg/mL puromycin (Gibco product #A11138-03). For the assay, the HEK-293/ABCB4 WT cells were seeded in white/opaque 384-well plates (Corning product #3570) at 10,000 cells/well in 20 μl growth medium and allowed to settle for 4 hours at 37° C. (5% CO2, humidified). Compound serial dilutions are prepared in DMSO as three hundred times (333×) the final concentration and using a dilution factor of 3 using Bravo (Agilent). After the four-hour incubation period, 60 nL of DMSO solutions are transferred to the assay plate.
(§1) Dose response curves include eleven doses with the top final concentration at 30 μM in 0.3% DMSO. Liquid handling is performed with ECHO 550 Acoustic Liquid Handler (Labcyte). After addition of compound treatment, cells are incubated for 24 hours at 37° C. (5% CO2, humidified). After the 24-hour treatment, plates are allowed to equilibrate to room temperature for 10 minutes. Using Dragonfly Automated Liquid Handler (TTP LabTech), 20 μl of HiBit lytic assay reagent (Promega, product #N3040), which is prepared according to manufacturer's instructions, is added to each well. The plates are rotated at room temperature for 2 minutes and incubated for 1 hour at 25° C. before luminescent signal is acquired using an EnVision Multimode Plate Reader (PerkinElmer).
Results are presented below in Table 5 for ABCB4 WT.

[2] = target: T2, ABCA4 P1380L (Homo sapiens, UniProt P78363, P1380L); assay: A4 correction dose-response assay: ABCA4 P1380L HiBit protein expression; conditions: HEK-293 cells stably expressing HiBit-tagged ABCA4 P1380L; 24 h treatment; top concentration 30 μM; read-out: ABCA4 P1380L EC50, Emax
T2 construct: expressed in transfected cells
T2 sequence (P78363 whole entry P1380L): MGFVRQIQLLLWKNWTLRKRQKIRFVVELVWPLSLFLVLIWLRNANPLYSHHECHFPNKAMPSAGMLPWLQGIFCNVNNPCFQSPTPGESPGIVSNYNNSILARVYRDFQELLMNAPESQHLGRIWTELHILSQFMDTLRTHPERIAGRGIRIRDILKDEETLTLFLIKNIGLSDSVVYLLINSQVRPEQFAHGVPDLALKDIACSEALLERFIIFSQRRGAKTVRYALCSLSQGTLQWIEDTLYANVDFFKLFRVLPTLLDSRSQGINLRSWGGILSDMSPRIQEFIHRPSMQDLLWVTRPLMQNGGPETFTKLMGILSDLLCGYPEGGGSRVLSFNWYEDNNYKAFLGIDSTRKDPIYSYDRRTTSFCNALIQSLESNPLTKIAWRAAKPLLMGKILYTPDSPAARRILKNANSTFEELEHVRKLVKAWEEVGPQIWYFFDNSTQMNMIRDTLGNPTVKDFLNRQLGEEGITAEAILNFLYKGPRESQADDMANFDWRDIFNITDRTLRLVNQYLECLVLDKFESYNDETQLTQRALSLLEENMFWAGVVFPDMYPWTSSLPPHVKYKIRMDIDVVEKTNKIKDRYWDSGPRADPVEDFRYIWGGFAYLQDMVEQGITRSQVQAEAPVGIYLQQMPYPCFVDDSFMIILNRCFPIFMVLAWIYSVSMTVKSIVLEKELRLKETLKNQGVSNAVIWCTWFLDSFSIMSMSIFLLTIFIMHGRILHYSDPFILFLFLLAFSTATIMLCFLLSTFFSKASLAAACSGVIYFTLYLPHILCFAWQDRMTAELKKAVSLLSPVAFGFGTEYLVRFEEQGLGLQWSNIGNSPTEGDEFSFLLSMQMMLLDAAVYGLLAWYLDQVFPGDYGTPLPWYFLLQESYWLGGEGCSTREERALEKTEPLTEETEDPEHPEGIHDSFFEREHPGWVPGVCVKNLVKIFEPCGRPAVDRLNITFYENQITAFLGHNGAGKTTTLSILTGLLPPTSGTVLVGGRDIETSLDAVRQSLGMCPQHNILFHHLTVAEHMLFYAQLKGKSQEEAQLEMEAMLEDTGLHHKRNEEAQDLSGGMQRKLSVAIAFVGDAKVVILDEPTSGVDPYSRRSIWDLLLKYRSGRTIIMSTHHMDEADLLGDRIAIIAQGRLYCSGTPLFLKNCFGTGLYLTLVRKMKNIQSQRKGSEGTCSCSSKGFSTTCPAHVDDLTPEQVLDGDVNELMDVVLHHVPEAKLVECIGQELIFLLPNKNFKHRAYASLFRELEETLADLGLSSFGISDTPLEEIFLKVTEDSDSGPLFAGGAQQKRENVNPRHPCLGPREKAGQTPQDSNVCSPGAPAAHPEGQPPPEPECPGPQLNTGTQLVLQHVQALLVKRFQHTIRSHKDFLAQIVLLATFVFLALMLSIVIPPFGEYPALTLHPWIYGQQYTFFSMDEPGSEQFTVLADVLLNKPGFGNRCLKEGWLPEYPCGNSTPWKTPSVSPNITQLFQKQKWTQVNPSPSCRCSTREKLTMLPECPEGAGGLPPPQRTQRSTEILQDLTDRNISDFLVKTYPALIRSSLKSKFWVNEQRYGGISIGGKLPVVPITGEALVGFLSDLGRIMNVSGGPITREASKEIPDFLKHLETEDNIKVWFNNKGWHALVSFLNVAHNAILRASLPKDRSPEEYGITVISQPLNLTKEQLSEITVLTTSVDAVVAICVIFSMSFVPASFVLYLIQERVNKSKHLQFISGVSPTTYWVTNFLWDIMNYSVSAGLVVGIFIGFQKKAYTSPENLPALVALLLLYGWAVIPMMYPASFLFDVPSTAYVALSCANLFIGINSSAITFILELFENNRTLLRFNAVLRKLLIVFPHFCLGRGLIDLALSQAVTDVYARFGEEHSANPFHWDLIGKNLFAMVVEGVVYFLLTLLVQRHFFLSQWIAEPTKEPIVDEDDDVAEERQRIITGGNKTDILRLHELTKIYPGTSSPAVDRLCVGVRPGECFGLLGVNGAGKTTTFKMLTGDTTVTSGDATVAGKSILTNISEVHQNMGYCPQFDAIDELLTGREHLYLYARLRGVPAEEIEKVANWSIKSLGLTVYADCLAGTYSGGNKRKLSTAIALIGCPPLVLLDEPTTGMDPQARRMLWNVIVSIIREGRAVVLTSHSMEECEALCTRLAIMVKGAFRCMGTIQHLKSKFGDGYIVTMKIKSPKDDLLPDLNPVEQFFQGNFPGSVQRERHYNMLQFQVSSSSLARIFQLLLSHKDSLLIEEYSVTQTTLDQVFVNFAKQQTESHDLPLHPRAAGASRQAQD
Experimental: Exemplary compounds were evaluated in an A4 correction dose-response assay.
To assess activity against ABCA4 P1380L, the compounds were screened in an assay measuring protein expression, using cells transfected with cDNA encoding HiBit-tagged ABCA4 P1380L. Here we describe an assay for measuring the expression of the P1380L variant of human ABCA4 (henceforth referred to as ABCA4 P1380L) and the use of this assay to measure the efficacy of compounds to increase the expression of ABCA4 P1380L. The assay was designed to characterize the efficacy and potency of compounds to increase the expression of ABCA4 P1380L by calculating an Emax and EC50 value. […] (5% CO2, humidified). […] After the four-hour incubation period, 60 nL of DMSO solutions are transferred to the assay plate.
as §1

[3] = target: T3, ABCC6 WT (Homo sapiens, UniProt O95255); assay: ABCC6 WT assay: HiBit protein expression; conditions: HEK-293 cells transiently expressing HiBit-tagged ABCC6 WT; 24 h treatment; top concentration 20 μM; read-out: ABCC6 WT EC50, Emax
T3 construct: expressed in transfected cells; host or cells: HEK-293 (transient, Lipofectamine 2000)
T3 sequence (O95255 whole entry): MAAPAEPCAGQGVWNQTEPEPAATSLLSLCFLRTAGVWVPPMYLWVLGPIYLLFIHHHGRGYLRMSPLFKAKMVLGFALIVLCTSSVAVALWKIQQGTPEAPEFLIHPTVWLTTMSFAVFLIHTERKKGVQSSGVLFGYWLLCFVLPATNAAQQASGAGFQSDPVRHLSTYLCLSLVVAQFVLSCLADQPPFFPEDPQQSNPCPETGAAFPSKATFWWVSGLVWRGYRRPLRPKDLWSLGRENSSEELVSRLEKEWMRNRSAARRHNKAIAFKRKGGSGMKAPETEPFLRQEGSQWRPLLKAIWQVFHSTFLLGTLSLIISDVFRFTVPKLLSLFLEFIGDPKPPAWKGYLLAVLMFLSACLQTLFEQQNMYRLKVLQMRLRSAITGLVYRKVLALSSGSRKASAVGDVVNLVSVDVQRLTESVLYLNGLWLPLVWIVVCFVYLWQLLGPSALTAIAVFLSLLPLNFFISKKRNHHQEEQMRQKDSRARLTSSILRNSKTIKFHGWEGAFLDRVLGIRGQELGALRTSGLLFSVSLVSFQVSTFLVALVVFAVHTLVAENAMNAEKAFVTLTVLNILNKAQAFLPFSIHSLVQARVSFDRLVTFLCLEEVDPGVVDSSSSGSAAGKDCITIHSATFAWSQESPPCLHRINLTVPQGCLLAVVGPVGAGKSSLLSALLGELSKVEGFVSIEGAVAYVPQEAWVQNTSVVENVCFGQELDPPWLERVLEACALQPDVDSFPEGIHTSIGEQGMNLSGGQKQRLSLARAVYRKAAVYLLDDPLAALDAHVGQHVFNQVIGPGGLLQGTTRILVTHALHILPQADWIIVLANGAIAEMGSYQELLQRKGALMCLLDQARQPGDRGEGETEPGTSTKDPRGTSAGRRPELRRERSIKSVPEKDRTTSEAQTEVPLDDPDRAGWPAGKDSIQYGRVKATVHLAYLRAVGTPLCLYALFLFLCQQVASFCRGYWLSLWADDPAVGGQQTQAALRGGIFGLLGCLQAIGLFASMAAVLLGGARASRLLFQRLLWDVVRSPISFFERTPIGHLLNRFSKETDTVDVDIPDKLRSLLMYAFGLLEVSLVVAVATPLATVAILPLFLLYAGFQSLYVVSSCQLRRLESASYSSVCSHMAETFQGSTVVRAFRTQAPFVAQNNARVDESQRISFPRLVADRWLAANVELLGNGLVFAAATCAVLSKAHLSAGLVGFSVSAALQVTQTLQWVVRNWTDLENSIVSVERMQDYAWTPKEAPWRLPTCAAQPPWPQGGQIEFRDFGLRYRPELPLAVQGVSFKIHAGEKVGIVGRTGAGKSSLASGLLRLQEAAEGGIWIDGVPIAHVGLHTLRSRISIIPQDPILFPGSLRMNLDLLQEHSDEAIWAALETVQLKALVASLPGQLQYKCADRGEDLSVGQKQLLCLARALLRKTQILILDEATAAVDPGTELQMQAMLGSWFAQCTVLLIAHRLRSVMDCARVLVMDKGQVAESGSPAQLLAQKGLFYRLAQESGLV
Excerpt: To assess activity against ABCC6, compounds were screened in an assay measuring protein expression, using cells transfected with cDNA encoding HiBit-tagged ABCC6 wild-type.
Described here is an assay for measuring the expression of the wild type of human ABCC6 (henceforth referred to as ABCC6 WT) and the use of this assay to measure the efficacy of compounds to increase the expression of ABCC6 WT. The assay was designed to characterize the efficacy and potency of compounds to increase the expression of ABCC6 WT by calculating an Emax and EC50 value. HEK-293 cells transiently expressing ABCC6 WT (HEK-293/ACC6 WT) were used for this assay and were cultured at 37° C. (5% CO2, humidified) in Dulbecco's Modified Eagle Medium (DMEM, Gibco product #11965-092) supplemented with 10% fetal bovine serum. For the assay, HEK-293 cells were transfected with […]/10 cm plate of cDNA encoding HiBit-tagged ABCC6 wild-type using Lipofectamine 2000 (Thermo Fisher, product #11668019). Twenty-four hours after transfection, the HEK-293/ACC6 WT cells were seeded in white/opaque 384-well plates (PerkinElmer, cat. No. 6007688) at 10,000 cells/well in 20 μl growth medium and allowed to settle for 4 hours at 37° C. (5% CO2, humidified). Compound serial dilutions are prepared in growth medium as ten times (10×) the final concentration and using a dilution factor of 2. After the four-hour incubation period, 2.2 μL of the 10× dilutions are transferred to the assay plate.
Dose response curves include ten doses with the top final concentration at 20 μM in 0.15% DMSO. Liquid handling is performed with an Integra mini96-tip head (INTEGRA). After addition of compound treatment, cells are incubated for 24 hours at 37° C. (5% CO2, humidified). After the 24-hour treatment, plates are allowed to equilibrate for 15 minutes at room temperature. Using Integra mini-96, 20 μl of HiBit lytic assay reagent (Promega, product #N3040), which is prepared according to manufacturer's instructions, is added to each well. The plates are rotated at room temperature for 10 minutes and luminescent signal is acquired using an EnVision Multimode Plate Reader (PerkinElmer).
Results are presented below in Table 4 for ABCC6 WT.

Row | SMILES | pEC50 [1] | pEC50 [2] | pEC50 [3]
1 | Cc1nc(Oc2nc(-c3cncc(C#N)c3)ccc2NS(C)(=O)=O)c(C2CC2)s1 [Compound I-300] | > 6.00 | > 4.60 | > 6.00
2 | Cc1cc(C(F)(F)F)nc(C2CC2)c1Oc1nc(-c2cncc(C#N)c2)ccc1S(=N)(=O)C1CCOCC1 (stereo not drawn) [Compound I-301] | ≤ 4.60 | > 4.60 | 5.00 to 6.00
3 | Cc1cc(C(F)(F)F)nc(C2CC2)c1Oc1nc(-c2cncc(C#N)c2)ccc1S(=N)(=O)c1ccccn1 (stereo not drawn) [Compound I-302] | 4.60 to 5.00 | < 4.60 | 4.60 to 5.00
4 | Cc1nc(C(F)(F)F)nc(C2CC2)c1Oc1nc(-c2cncc(C#N)c2)ccc1S(=N)(=O)C1CC1 (stereo not drawn) [Compound I-303] | ≤ 4.60 | < 4.60 | 5.00 to 6.00
5 | Cc1cc(C(F)(F)F)nc(C2CC2)c1Oc1nc(-c2cncc(C#N)c2)ccc1S(=N)(=O)c1cccnc1 (stereo not drawn) [Compound I-304] | 5.00 to 6.00 | 5.00 to 6.00 | 5.00 to 6.00
6 | Cc1cc(C(F)(F)F)nc(C2CC2)c1Oc1nc(-c2cncc(C#N)c2)ccc1S(=O)(=O)NC1COC1 [Compound I-305] | ≤ 4.60 | < 4.60 | > 6.00
7 | Cc1cc(C(F)(F)F)nc(C2CC2)c1Oc1nc(-c2cncc(C#N)c2)ccc1S(=O)(=O)NC1CCOCC1 [Compound I-306] | ≤ 4.60 | > 4.60 | > 6.00
8 | Cc1cc(C)c(Oc2nc(-c3c[nH]c(=O)c(C#N)c3)ccc2NS(C)(=O)=O)c(C)n1 [Compound I-307] | ≤ 4.60 | < 4.60 | 5.00 to 6.00
9 | CNS(=O)(=O)c1ccc(-c2cncc(C#N)c2)nc1Oc1nc(C2CC2)sc1C [Compound I-308] | > 4.60 | < 4.60 | 5.00 to 6.00
10 | Cc1nc(C(F)(F)F)nc(C2CC2)c1Oc1nc(-c2cncc(C#N)c2)ccc1S(=O)(=O)Nc1cnn(C)c1 [Compound I-309] | > 6.00 | < 4.60 | 5.00 to 6.00
11 | Cc1nc(C(F)(F)F)nc(C2CC2)c1Oc1nc(-c2cncc(C#N)c2)ccc1S(=O)(=O)Nc1cccnc1 [Compound I-310] | ≤ 4.60 | < 4.60 | > 6.00
12 | Cc1cc(C)[n+]([O-])c(C)c1Oc1nc(-c2cncc(C#N)c2)ccc1NS(C)(=O)=O [Compound I-311] | 5.00 to 6.00 | 5.00 to 6.00 | 5.00 to 6.00
13 | CNS(=O)(=O)c1ccc(-c2cncc(C#N)c2)nc1Oc1nc(C)sc1C1CC1 [Compound I-312] | ≤ 4.60 | < 4.60 | > 4.60
14 | CNS(=O)(=O)c1ccc(-c2cncc(C#N)c2)nc1Oc1c(C)nc(C(F)F)nc1C1CC1 [Compound I-313] | 5.00 to 6.00 | 4.60 to 5.00 | 5.00 to 6.00
15 | Cc1nc(C(F)F)nc(C2CC2)c1Oc1nc(-c2cncc(C#N)c2)ccc1S(=O)(=O)NC1CC1 [Compound I-314] | 5.00 to 6.00 | < 4.60 | ≤ 4.60
16 | CNS(=O)(=O)c1ccc(-c2cncc(C#N)c2)nc1Oc1c(C)nc(C(F)(F)F)nc1C1CC1 [Compound I-315] | ≤ 4.60 | < 4.60 | 5.00 to 6.00
17 | Cc1cc(C)c(Oc2nc(-c3cccc(C#N)c3)ccc2S(=N)(=O)C2CC2)c(C)n1 (stereo not drawn) [Compound I-316] | 5.00 to 6.00 | 5.00 to 6.00 | 5.00 to 6.00
